Test results published in the CheMixHub viscosity set.
± gives the uncertainty stated by the source.

Experiment: xn = mol fraction of the nth substance listed

CCOc1ccccc1 + c1ccccc1
viscosity [mPa·s], 101.33 kPa
Details | 298.15 K | 323.15 K
x1 = 0.2 | 0.68 ± 0.0068 | 0.49 ± 0.0049
x1 = 0.5 | 0.823 ± 0.0082 | 0.576 ± 0.0058

OCC(O)CO + CN1CCCC1=O
101 kPa
Details | viscosity [mPa·s]
298 K, x2 = 0.078 | 418.4 ± 45
298 K, x2 = 0.16 | 269.4 ± 28
298 K, x2 = 0.338 | 72.84 ± 7.6
298 K, x2 = 0.433 | 38.94 ± 4
298 K, x2 = 0.534 | 20.42 ± 2.1
298 K, x2 = 0.641 | 11.12 ± 1.1
298 K, x2 = 0.754 | 4.23 ± 0.43
298 K, x2 = 0.873 | 2.44 ± 0.25
303 K, x2 = 0.078 | 289.9 ± 31
303 K, x2 = 0.16 | 160.5 ± 17
303 K, x2 = 0.336 | 55.93 ± 5.7
303 K, x2 = 0.432 | 30.16 ± 3.1
303 K, x2 = 0.533 | 17.83 ± 1.8
303 K, x2 = 0.64 | 9.48 ± 0.96
303 K, x2 = 0.753 | 3.75 ± 0.38
303 K, x2 = 0.872 | 2.26 ± 0.23
308 K, x2 = 0.077 | 211.3 ± 22
308 K, x2 = 0.159 | 118.3 ± 12
308 K, x2 = 0.335 | 43.4 ± 4.4
308 K, x2 = 0.43 | 25.79 ± 2.6
308 K, x2 = 0.531 | 15.16 ± 1.5
308 K, x2 = 0.638 | 7.7 ± 0.78
308 K, x2 = 0.751 | 3.27 ± 0.33
308 K, x2 = 0.872 | 2.02 ± 0.2
313 K, x2 = 0.077 | 143.4 ± 15
313 K, x2 = 0.158 | 87.14 ± 8.9
313 K, x2 = 0.334 | 35.17 ± 3.6
313 K, x2 = 0.43 | 20.73 ± 2.1
313 K, x2 = 0.53 | 10.45 ± 1.1
313 K, x2 = 0.637 | 6.13 ± 0.62
313 K, x2 = 0.751 | 2.91 ± 0.29
313 K, x2 = 0.871 | 1.88 ± 0.19
318 K, x2 = 0.077 | 106.1 ± 11
318 K, x2 = 0.158 | 54.08 ± 5.5
318 K, x2 = 0.334 | 25 ± 2.5
318 K, x2 = 0.429 | 16.1 ± 1.6
318 K, x2 = 0.53 | 9.03 ± 0.91
318 K, x2 = 0.637 | 5.17 ± 0.52
318 K, x2 = 0.75 | 2.68 ± 0.27
318 K, x2 = 0.871 | 1.72 ± 0.17
323 K, x2 = 0.077 | 83.45 ± 8.5
323 K, x2 = 0.158 | 50.16 ± 5
323 K, x2 = 0.334 | 21.33 ± 2.1
323 K, x2 = 0.429 | 13.43 ± 1.4
323 K, x2 = 0.53 | 7.11 ± 0.72
323 K, x2 = 0.637 | 4.64 ± 0.47
323 K, x2 = 0.75 | 2.46 ± 0.25
323 K, x2 = 0.871 | 1.6 ± 0.16

CCOC(C)=O + CC(C)O
viscosity [mPa·s], 101.3 kPa
Details | x1 = 0.1003 | x1 = 0.2045 | x1 = 0.3082 | x1 = 0.4005 | x1 = 0.4994 | x1 = 0.5952 | x1 = 0.7049 | x1 = 0.7916 | x1 = 0.9011
298.15 K | 1.326 ± 0.012 | 0.9655 ± 0.0086 | 0.767 ± 0.0068 | 0.6606 ± 0.0059 | 0.5797 ± 0.0053 | 0.5283 ± 0.0049 | 0.4812 ± 0.0045 | 0.466 ± 0.0044 | 0.4473 ± 0.0042
303.15 K | 1.177 ± 0.01 | 0.8717 ± 0.0076 | 0.701 ± 0.0062 | 0.6122 ± 0.0055 | 0.5391 ± 0.005 | 0.4939 ± 0.0046 | 0.4525 ± 0.0043 | 0.4389 ± 0.0042 | 0.4233 ± 0.004
308.15 K | 1.044 ± 0.009 | 0.7861 ± 0.0069 | 0.6407 ± 0.0058 | 0.5644 ± 0.0052 | 0.5011 ± 0.0047 | 0.4617 ± 0.0044 | 0.4257 ± 0.0041 | 0.4153 ± 0.004 | 0.4006 ± 0.0039
313.15 K | 0.9286 ± 0.0081 | 0.7126 ± 0.0063 | 0.5876 ± 0.0054 | 0.5224 ± 0.0048 | 0.4673 ± 0.0044 | 0.4332 ± 0.0041 | 0.4012 ± 0.0039 | 0.3911 ± 0.0038 | 0.3793 ± 0.0037
318.15 K | 0.8325 ± 0.0073 | 0.6477 ± 0.0059 | 0.5427 ± 0.005 | 0.4856 ± 0.0046 | 0.4365 ± 0.0042 | 0.4066 ± 0.004 | 0.3798 ± 0.0037 | 0.3711 ± 0.0037 | 0.3605 ± 0.0036
323.15 K | 0.7498 ± 0.0066 | 0.5901 ± 0.0053 | 0.501 ± 0.0047 | 0.4503 ± 0.0043 | 0.4088 ± 0.004 | 0.3831 ± 0.0038 | 0.3586 ± 0.0036 | 0.3513 ± 0.0035 | 0.343 ± 0.0035

CCOC(C)=O + C1COCCO1
Details | viscosity [mPa·s]
303.15 K, 101 kPa, x2 = 0.1021 | 0.435 ± 0.005
303.15 K, 101 kPa, x2 = 0.2024 | 0.466 ± 0.005
303.15 K, 101 kPa, x2 = 0.2982 | 0.505 ± 0.005
303.15 K, 101 kPa, x2 = 0.4026 | 0.553 ± 0.006
303.15 K, 101 kPa, x2 = 0.4968 | 0.602 ± 0.006
303.15 K, 101 kPa, x2 = 0.6025 | 0.668 ± 0.007
303.15 K, 101 kPa, x2 = 0.697 | 0.742 ± 0.007
303.15 K, 101 kPa, x2 = 0.8007 | 0.834 ± 0.008
303.15 K, 101 kPa, x2 = 0.9003 | 0.948 ± 0.009
303.15 K, 101.32 kPa, x1 = 0.0451 | 1.02 ± 0.03
303.15 K, 101.32 kPa, x1 = 0.0948 | 0.948 ± 0.024
303.15 K, 101.32 kPa, x1 = 0.1332 | 0.901 ± 0.023
303.15 K, 101.32 kPa, x1 = 0.1779 | 0.848 ± 0.022
303.15 K, 101.32 kPa, x1 = 0.2236 | 0.802 ± 0.021
303.15 K, 101.32 kPa, x1 = 0.3187 | 0.717 ± 0.019
303.15 K, 101.32 kPa, x1 = 0.4176 | 0.648 ± 0.017
303.15 K, 101.32 kPa, x1 = 0.467 | 0.616 ± 0.016
303.15 K, 101.32 kPa, x1 = 0.5155 | 0.59 ± 0.015
303.15 K, 101.32 kPa, x1 = 0.6182 | 0.539 ± 0.014
303.15 K, 101.32 kPa, x1 = 0.7243 | 0.497 ± 0.013
303.15 K, 101.32 kPa, x1 = 0.8297 | 0.456 ± 0.012
303.15 K, 101.32 kPa, x1 = 0.9411 | 0.422 ± 0.011
308.15 K, 101 kPa, x2 = 0.1 | 0.439 ± 0.006
308.15 K, 101 kPa, x2 = 0.2 | 0.475 ± 0.006
308.15 K, 101 kPa, x2 = 0.3 | 0.506 ± 0.007
308.15 K, 101 kPa, x2 = 0.4 | 0.542 ± 0.007
308.15 K, 101 kPa, x2 = 0.5 | 0.58 ± 0.008
308.15 K, 101 kPa, x2 = 0.6 | 0.625 ± 0.008
308.15 K, 101 kPa, x2 = 0.8 | 0.756 ± 0.01
308.15 K, 101 kPa, x2 = 0.9 | 0.852 ± 0.011
313.15 K, 101.32 kPa, x1 = 0.209 | 0.717 ± 0.019
313.15 K, 101.32 kPa, x1 = 0.405 | 0.583 ± 0.015
313.15 K, 101.32 kPa, x1 = 0.5144 | 0.528 ± 0.014
313.15 K, 101.32 kPa, x1 = 0.602 | 0.49 ± 0.013
313.15 K, 101.32 kPa, x1 = 0.7994 | 0.423 ± 0.011

CCOc1ccccc1 + CCCCCO
viscosity [mPa·s], 101.3 kPa
Details | x1 = 0.0998 | x1 = 0.1989 | x1 = 0.3012 | x1 = 0.3999 | x1 = 0.5004 | x1 = 0.6001 | x1 = 0.7013 | x1 = 0.7997 | x1 = 0.9021
293.15 K | 3.281 ± 0.078 | 2.682 ± 0.067 | 2.196 ± 0.057 | 1.866 ± 0.051 | 1.631 ± 0.046 | 1.494 ± 0.044 | 1.42 ± 0.043 | 1.379 ± 0.042 | 1.371 ± 0.042
298.15 K | 2.882 ± 0.071 | 2.372 ± 0.061 | 1.953 ± 0.053 | 1.646 ± 0.047 | 1.423 ± 0.043 | 1.299 ± 0.04 | 1.245 ± 0.039 | 1.232 ± 0.039 | 1.228 ± 0.039
308.15 K | 2.152 ± 0.056 | 1.785 ± 0.049 | 1.486 ± 0.044 | 1.256 ± 0.039 | 1.121 ± 0.037 | 1.032 ± 0.035 | 0.9978 ± 0.034 | 0.9914 ± 0.034 | 0.9892 ± 0.034
318.15 K | 1.691 ± 0.048 | 1.381 ± 0.042 | 1.155 ± 0.037 | 1.01 ± 0.035 | 0.9175 ± 0.033 | 0.8405 ± 0.031 | 0.8318 ± 0.031 | 0.8317 ± 0.031 | 0.8269 ± 0.031

COC(=O)CC(C)=O + CC(C)CO
viscosity [mPa·s], 101.3 kPa
Details | x1 = 0.1046 | x1 = 0.2052 | x1 = 0.3095 | x1 = 0.4094 | x1 = 0.5075 | x1 = 0.6057 | x1 = 0.7026 | x1 = 0.8059 | x1 = 0.902
298.15 K | 2.24 ± 0.034 | 1.81 ± 0.026 | 1.598 ± 0.022 | 1.463 ± 0.02 | 1.385 ± 0.019 | 1.352 ± 0.018 | 1.35 ± 0.018 | 1.38 ± 0.019 | 1.449 ± 0.02
303.15 K | 1.944 ± 0.027 | 1.591 ± 0.022 | 1.412 ± 0.019 | 1.303 ± 0.018 | 1.241 ± 0.017 | 1.221 ± 0.017 | 1.223 ± 0.017 | 1.251 ± 0.017 | 1.312 ± 0.018
308.15 K | 1.696 ± 0.022 | 1.407 ± 0.019 | 1.257 ± 0.017 | 1.17 ± 0.016 | 1.124 ± 0.015 | 1.108 ± 0.015 | 1.114 ± 0.015 | 1.143 ± 0.016 | 1.198 ± 0.016

CCOc1ccccc1 + CC1COC(=O)O1
viscosity [mPa·s], 101.33 kPa
Details | x2 = 0.1218 | x2 = 0.2226 | x2 = 0.3591 | x2 = 0.4874 | x2 = 0.5257 | x2 = 0.5674 | x2 = 0.6723 | x2 = 0.7807 | x2 = 0.8898 | x2 = 0.9431
293.15 K | 1.338 ± 0.015 | 1.436 ± 0.016 | 1.586 ± 0.018 | 1.739 ± 0.02 | 1.789 ± 0.02 | 1.837 ± 0.021 | 1.985 ± 0.023 | 2.17 ± 0.025 | 2.405 ± 0.027 | 2.544 ± 0.029
303.15 K | 1.119 ± 0.013 | 1.202 ± 0.014 | 1.316 ± 0.015 | 1.44 ± 0.016 | 1.474 ± 0.017 | 1.516 ± 0.017 | 1.63 ± 0.019 | 1.773 ± 0.02 | 1.96 ± 0.022 | 2.078 ± 0.024
313.15 K | 0.945 ± 0.011 | 1.013 ± 0.012 | 1.11 ± 0.013 | 1.215 ± 0.014 | 1.246 ± 0.014 | 1.278 ± 0.015 | 1.373 ± 0.016 | 1.495 ± 0.017 | 1.651 ± 0.019 | 1.742 ± 0.02
